Test results taken from PubChem BioAssay (NCI).
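96-well plates; 48 h exposure; 5 concentrations. Endpoints by linear interpolation between flanking doses. Not reached: highest tested concentration assigned. Definition used: TGI = concentration required for complete inhibition of growth.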

How the values were obtained:
Test in all cases: NCI tumour cell line growth inhibition, 48 h
HCT-116 colon = tested on: HCT-116 colon
MDA-MB-435 = tested on: MDA-MB-435
NCI-H460 lung = tested on: NCI-H460 lung
OVCAR-5 ovarian = tested on: OVCAR-5 ovarian
SK-MEL-5 melanoma = tested on: SK-MEL-5 melanoma
COLO 205 colon = tested on: COLO 205 colon
SF-539 CNS = tested on: SF-539 CNS
MOLT-4 leukemia = tested on: MOLT-4 leukemia
OVCAR-8 ovarian = tested on: OVCAR-8 ovarian
MALME-3M melanoma = tested on: MALME-3M melanoma
SK-OV-3 ovarian = tested on: SK-OV-3 ovarian
MDA-N = tested on: MDA-N
CCRF-CEM leukemia = tested on: CCRF-CEM leukemia

Row | SMILES | TGI (HCT-116 colon) | TGI (MDA-MB-435) | TGI (NCI-H460 lung) | TGI (OVCAR-5 ovarian) | TGI (SK-MEL-5 melanoma) | TGI (COLO 205 colon) | TGI (SF-539 CNS) | TGI (MOLT-4 leukemia) | TGI (OVCAR-8 ovarian) | TGI (MALME-3M melanoma) | TGI (SK-OV-3 ovarian) | TGI (MDA-N) | TGI (CCRF-CEM leukemia)
1 | CCOc1nc2sc3c(c2c(=O)n1CCSSCCn1c(OCC)nc2sc4c(c2c1=O)CCCC4)CCCC3 | > 100 µM | > 100 µM | > 100 µM | > 100 µM | > 100 µM | > 100 µM | > 100 µM | > 100 µM | > 100 µM | > 100 µM | > 100 µM | > 100 µM | 
2 | COc1cc(OC)nc(-n2c(N)c(C(=O)O)c3ccc([N+](=O)[O-])cc3c2=O)n1 | > 100 µM | > 100 µM | > 100 µM | > 100 µM | > 100 µM | > 100 µM |  | > 100 µM | > 100 µM | > 100 µM | > 100 µM | > 100 µM | > 100 µM
3 | NC(=O)NC(=O)c1cccc(NC(=O)CCl)c1 | 1.83 µM | 5.93 µM | 3.92 µM | 9.49 µM | 2.07 µM | 2.2 µM | 1.5 µM | 15.4 µM | 12.7 µM | > 48.1 µM | 8.88 µM | 1.08 µM | 4.16 µM
4 | COc1cccc(CCn2c(N)c(C#N)c3ccc([N+](=O)[O-])cc3c2=O)c1 | > 46.4 µM | > 100 µM | > 46.4 µM | > 31.6 µM | > 100 µM | > 100 µM |  | > 31.6 µM | > 46.4 µM | > 31.6 µM | > 31.6 µM | > 100 µM | > 31.6 µM
5 | CCOC(=O)/C(=C\c1c(C)[nH]c2ccccc12)P(=O)(OCC)OCC | > 100 µM | > 100 µM | > 100 µM | > 100 µM | > 100 µM | > 100 µM | > 100 µM | > 100 µM | > 100 µM | > 100 µM | > 100 µM | > 100 µM | 
6 | C[C@]12CC[C@H](O)CC1=CC[C@@H]1[C@@H]2CC[C@]2(C)NC(=O)/C(=C\c3ccccc3)C[C@@H]12 | 37 µM | 37.8 µM | 68.9 µM | 27.9 µM | 25.7 µM | 31.9 µM | 30.2 µM | 98.5 µM | 47.6 µM | 30.3 µM | 35.5 µM | 69.8 µM | 48.5 µM
7 | N#Cc1c(N)c2c(c(-c3ccccc3)c1-c1ccccc1)C(=O)N(O)C2=O | 82.4 µM | > 100 µM | > 100 µM | > 100 µM | > 100 µM | 52.2 µM | > 100 µM | > 100 µM | > 100 µM | > 100 µM |  | > 100 µM | > 100 µM
8 | COc1cc(/C=N/n2c(C)n[nH]c2=O)cc(OC)c1OC | > 100 µM | > 100 µM | > 100 µM | > 100 µM |  | > 100 µM | > 100 µM | > 100 µM | > 100 µM | > 100 µM | > 100 µM | > 100 µM | > 100 µM
9 | O=C1NC(N2CCCCC2)=N/C1=C\c1ccco1 | > 100 µM | > 100 µM |  | > 100 µM | > 100 µM | > 100 µM | > 100 µM | > 100 µM | > 100 µM | > 100 µM | > 100 µM | > 100 µM | > 100 µM
